US20040186098A1 (Amgen Inc., priority 1997, published 2004)

How the values were obtained:
FKBP12 = FKBP12 (Homo sapiens, UniProt P62942); test: Ki test procedure: inhibition of peptidyl-prolyl isomerase (rotamase) activity of FKBP12, chymotrypsin-coupled assay; assay type: biochemical; conditions: apparent Ki
Excerpt: The inhibition of the prolyl peptidyl cis-trans isomerase activity of FKBP may be measured as an indicator of this affinity.
The binding to FBKP12 and inhibition of the peptidyl-prolyl isomerase (rotamase) activity of the compounds used in the inventive methods and pharmaceutical compositions can be evaluated by known methods described in the literature (Harding et al., Nature, 1989, 341:758-760; Holt et al. J. Am. Chem. Soc., 115:9923-9938).
The cis-trans isomerization of an alanine-proline bond in a model substrate, N-succinyl-Ala-Ala-Pro-Phe-p-nitroanilide, is monitored spectrophotometrically in a chymotrypsin-coupled assay, which releases para-nitroanilide from the trans form of the substrate. The inhibition of this reaction caused by the addition of different concentrations of inhibitor is determined, and the data is analyzed as a change in first-order rate constant as a function of inhibitor concentration to yield the apparent Ki values.
In a plastic cuvette are added […] of ice cold assay buffer (25 mM HEPES, pH 7.8, 100 mM NaCl), 10 mL of FKBP (2.5 mM in 10 mM Tris-Cl pH 7.5, 100 mM NaCl, 1 mM dithiothreitol), […] of chymotrypsin (50 mg/ml in 1 mM HCl) and […] of test compound at various concentrations in dimethyl sulfoxide. The reaction is initiated by the addition of 5 mL of substrate (succinyl-Ala-Phe-Pro-Phe-para-nitroanilide, 5 mg/mL in 2.35 mM LiCl in trifluoroethanol).
The absorbance at 390 nm versus time is monitored for 90 seconds using a spectrophotometer and the rate constants are determined from the absorbance versus time data files.

outer hair cells (OHC) = test: Intramiddle ear neomycin-induced ototoxicity, compound given into the middle ear, outer hair cell loss; assay type: in vivo, guinea pig; conditions: 10 ng in the middle ear
Procedure: Twenty guinea pigs used in this study were divided into two groups: 10 animals received 10 ng and 10 received 1 ng of the sensorineurotrophic compound.
Sensorineurotrophic compound stock A: A stock solution of sensorineurotrophic compound at 1 mg/10 ml in 100% ethanol was prepared and then diluted and mixed in Intralipid at 10 ng/100 μl.
Sensorineurotrophic compound stock B: A stock solution of sensorineurotrophic compound at 1 mg/100 ml in 100% ethanol was prepared and then diluted and mixed in 20% Intralipid at 1 ng/100 μl.
Animals were anesthetized with an intramuscular injection of a mixture of ketamine (80 mg/kg) and xylazine (4 mg/kg). Through a post-auricular incision, the right bulla was identified. A hole was drilled to open the middle ear cavity (care was taken not to injure the tympanic annulus or ossicles). A piece of gelfoam (˜2 mm^3) soaked with the sensorineurotrophic compound solution was inserted into the round window niche. The remaining sensorineurotrophic compound solution (˜100 μl) then was injected into the middle ear cavity. In the 10 ng dose group, 100 μl of sensorineurotrophic compound stock A was administered; and in the 1 ng dose group, 100 μl of sensorineurotrophic compound stock B was administered to the middle ear cavity. The hole was covered with a piece of clear plastic sheet which was stuck on the skull with a superglue. The incision was closed with clips. The same procedure was performed at the left bulla, but 100 μl of vehicle solution instead of sensorineurotrophic compound solution was administered. The animals were maintained in the prone position until they woke up to ensure filling of the middle ear cavity.
After two days, the animals received a second middle ear administration of sensorineurotrophic compound or vehicle together with neomycin. Solutions were prepared for the two groups of animals as follows:
Solution A: Neomycin was dissolved in sensorineurotrophic compound stock A described above. The final concentration of neomycin was 5 mg and the sensorineurotrophic compound concentration was 10 ng in a 100 μl vehicle solution.
Solution B: Neomycin was dissolved in sensorineurotrophic compound stock B described above. The final concentration of neomycin was 5 mg and the concentration of sensorineurotrophic compound was 1 ng in a 100 μl vehicle solution.
Solution C: Neomycin was dissolved in 20% Intralipid to a final concentration of 5 mg in 100 μl vehicle.
The plastic cover sheet on the bulla window was removed and the middle ear cavity was exposed. The old sensorineurotrophic compound or vehicle was sucked off and the old gelfoam was removed from the round window niche. A piece of gelfoam with fresh stock solution containing sensorineurotrophic compound and neomycin was administered to the round window niche, and the remaining solution (˜100 μl, solution A for the 10 ng dose group and solution B for the 1 ng dose group, respectively) was injected into the middle ear cavity of the right bulla.
Solution C (100 μl) was administered to the left ear for both groups in the same way.
Fourteen days after the second surgery, animals were perfused transcardially with a PBS flush followed by a fixative of 4% paraformaldehyde in 0.1M PBS. Immediately following the perfusion, the temporal bone was removed from the head. The bulla was opened and the cochlea was exposed. The apex was opened and the membrane of the round and oval windows was punched. The fixative solution was gently infused into the perilymphatic space through the apex hole and then allowed to flow out from windows. Then the cochleae were post-fixed in the same fixative solution for at least one day.
To identify and count hair cells in the organ of Corti, a direct immunostaining method was used to label the actin present naturally in the stereocilia bundles of the hair cells. The cochlea was dissected and the perilymphatic space was fully exposed. […]

Preyer's reflex = test: Cisplatin-induced ototoxicity, compound given systemically, Preyer's reflex monitoring; assay type: in vivo, guinea pig; conditions: 30 mg/kg s.c. daily, cisplatin 4 mg/kg i.p. x4; 10 days after the 4th injection; vehicle group more than 80%
Procedure: Twenty male pigmented guinea pigs were divided into two groups (10 in each). One group was treated with Compound XXV while the other with vehicle—2 days prior to the first cisplatin injection. The test compound or vehicle was delivered by daily sub-cutaneous injection. On the day of injection, 100 mg of Compound XXV was dissolved in 1 ml of ethanol, then added to 20% Intralipid solution to a final volume of 3 ml and final Compound XXV concentration of 10 mg/0.3 ml. Each animal was subcutaneously injected with 30 mg/kg of Compound XXV solution Two days after the beginning of test compound injections (d2), cisplatin intraperitoneal injection was given to all animals at 4 mg/kg. After 3 days, a second cisplatin injection was given to all animals (d5). After another 3 days, a third injection (d8) and after 3 more days the fourth and last injection of cisplatin was given (d11). Test compound injections continued daily until day 21 (10 days after the last cisplatin injection).
Preyers' reflex is a rough indication of hearing function in rodents. […] The animals in this experiment were monitored daily for their Preyer's reflex. […]
Determination of hair cell numbers was determined in the same manner as in Example 4.

[1] = rotamase inhibition, Table XLI, Formulas I to XIV

FKBP12, sequence (P62942 whole entry, species assumed): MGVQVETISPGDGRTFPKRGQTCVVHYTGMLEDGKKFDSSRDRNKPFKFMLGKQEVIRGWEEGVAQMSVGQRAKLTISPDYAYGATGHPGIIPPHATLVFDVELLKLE

Row | Ki (FKBP12; FKBP12 rotamase inhibition) [nM] | Compound | Ki (FKBP12; [1]) [nM] | also measured
1 | – | O=C(C(=O)N1CCCCC1C(=O)SCCc1ccccc1)c1ccccc1 (stereo not shown) [Compound 14] | 313 | –
2 | – | O=C(C(=O)N1CCC[C@H]1C(=O)SCCc1ccccc1)C1CCCC1 [Compound 28, 2-Phenyl-1-ethyl (2S)-1-(1-cyclopentyl-1,2-dioxoethyl)-2-pyrrolidinecarbothioate] | 108 | –
3 | – | CCC(C)(C)C(=O)C(=O)N1CSC[C@@H]1C(=O)OCCCc1ccccc1 [Compound 80, 3-phenyl-1-propyl(2S)-1-(3,3-dimethyl-1,2-dioxopentyl)-2-(4-thiazolidine)carboxylate] | 215 | –
4 | 51 to 200 | CCC(C)(C)NC(=O)N1CCCC1C(=O)SCCCc1ccc(OC)cc1 (stereo not shown) [Compound 103] | – | –
5 | 1 to 50 | O=C(SCCCc1cccnc1)C1CCCN1C(=S)NC12CC3CC(CC(C3)C1)C2 (stereo not shown) [Compound 108] | – | –
6 | 1 to 50 | O=C(SC(CCc1ccccc1)CCc1ccccc1)C1CCCCN1C(=O)Nc1ccccc1 (stereo not shown) [Compound 113] | – | –
7 | – | CCC(C)(C)C(=O)C(=O)N1CCC[C@H]1C(=O)SCCC(c1ccccc1)c1ccccc1 [Compound XVI] | – | difference in the number of OHCs lost, vehicle vs compound (FIG. 8) (outer hair cells (OHC); 5 mg neomycin, group mean): over 50%; loss of hair cells in the second turn (turn 3), in words (outer hair cells (OHC); neomycin (FIG. 9)): completely prevent the loss; loss of hair cells in the basal turn (turn 4) (outer hair cells (OHC); neomycin, vehicle almost 100% (FIG. 9)): around 30%
8 | – | CCC(C)(C)C(=O)C(=O)N1CCCCC1C(=O)SCCC(c1ccccc1)c1ccccc1 (stereo not shown) [Compound XXV] | – | animals that lost Preyer's reflex (Preyer's reflex): about 20 % of the animals
